The IC50 is the concentration needed to halve the response being measured. As usually defined, the CC50 is the concentration that lowers cell viability or growth by half.

Structures are written as SMILES.

For 24 molecules, IC50, CC50 and viability results are on record in patent publication US20250009742A1 (priority 2021, published 2025).

In one series the test system is intracellular HBV DNA. Description: Real-time PCR for intracellular HBV DNA in HepAD38 cells. It is filed as cell-based. To be noted: Hepatitis B virus, HePAD38, 65 h, 65 hours treatment. For orientation: Quantitative PCR measures a nucleic acid by following its amplification.
Series [1] is described as follows: Cell viability assay (EZ-Cytox), cytotoxicity. It is filed as cell-based. To be noted: human, HepAD38 cells; for viability at 65 h, 100 µM: read-out: Cytotoxicity % Livability (@100 μM). The method, then: HepAD38 cells were cultured for 2 days in Dulbecco's Modified Eagle's medium (Welgene, LM001-05) supplemented with 10% FBS without tetracycline. […] After 65 hours of treatment, viability was measured using EZ-Cytox cell viability assay kit (Daeil Lab Service) according to the manufacturer's instructions. The absorbance was measured at 450 nm using a spectrophotometer (Spark, Tecan).

For the molecule `COc1ccc(N(Cc2nn(CCOC3CCCCO3)c3c2CCC3)C(=O)Nc2ccc(F)c(Cl)c2)cn1` (stereo not shown) [Example 66, 3-(3-chloro-4-fluorophenyl)-1-(6-methoxypyridin-3-yl)-1-((1-(2-(tetrahydro-2H-pyran-2-yloxy)ethyl)-1,4,5,6-tetrahydrocyclopenta[c]pyrazol-3-yl)methyl)urea], the IC50 with intracellular HBV DNA is over 300 nM. For the same molecule, it took 81900 nM to reach half-maximal cytotoxicity in series [1] (CC50 at 65 h).
Taken in the same sequence, the figures for `COc1ccc(N(Cc2nn(CCO)c3c2CCC3)C(=O)Nc2ccc(F)c(Cl)c2)cn1` [Example 67, 3-(3-chloro-4-fluorophenyl)-1-((1-(2-hydroxyethyl)-1,4,5,6-tetrahydrocyclopenta[c]pyrazol-3-yl)methyl)-1-(6-methoxypyridin-3-yl)urea] were over 300 nM and over 100000 nM.
As to `COc1ccc(N(Cc2n[nH]c3c2COC3)C(=O)Nc2ccc(F)c(Cl)c2)cn1` [Example 69, 3-(3-chloro-4-fluorophenyl)-1-((4,6-dihydro-1H-furo[3,4-c]pyrazol-3-yl)methyl)-1-(6-methoxypyridin-3-yl)urea], half-maximal inhibition in the series with intracellular HBV DNA (IC50) required 21 nM. Moreover, in series [1], the CC50 at 65 h is over 100000 nM and the viability at 65 h, 100 µM came out at 94.5%.
Taken in the same sequence, the figures for `COc1cc(N(Cc2n[nH]c3c2COC3)C(=O)Nc2ccc(F)c(Cl)c2)ccn1` [Example 70, 3-(3-chloro-4-fluorophenyl)-1-((4,6-dihydro-1H-furo[3,4-c]pyrazol-3-yl)methyl)-1-(2-methoxypyridin-4-yl)urea] were 9 nM, over 100000 nM and 98%.
In the case of `COc1cc(N(Cc2n[nH]c3c2OCCO3)C(=O)Nc2ccc(F)c(Cl)c2)ccn1` [Example 71, 3-(3-chloro-4-fluorophenyl)-1-((5,6-dihydro-1H-[1,4]dioxino[2,3-c]pyrazol-3-yl)methyl)-1-(2-methoxypyridin-4-yl)urea], the IC50 in the series with intracellular HBV DNA came out at 76 nM. The molecule further gave a 50% cytotoxic concentration (CC50) at 65 h in series [1] of over 100000 nM.
Turning to `COc1ccc(N(Cc2cc(C(F)F)[nH]n2)C(=O)Nc2ccc(F)c(Cl)c2)cn1` [Example 72, 3-(3-chloro-4-fluorophenyl)-1-((5-(difluoromethyl)-1H-pyrazol-3-yl)methyl)-1-(6-methoxypyridin-3-yl)urea], in the series on intracellular HBV DNA, the concentration for half-maximal inhibition (IC50) came to 48 nM. Also, in series [1], the CC50 at 65 h is over 66600 nM and the viability at 65 h, 100 µM was 48.5%.
On to `COc1cc(N(Cc2n[nH]c3c2COCC3)C(=O)Nc2ccc(F)c(Cl)c2)ccn1` [Example 73, 3-(3-chloro-4-fluorophenyl)-1-(2-methoxypyridin-4-yl)-1-((1,4,6,7-tetrahydropyrano[4,3-c]pyrazol-3-yl)methyl)urea], for which the IC50 with intracellular HBV DNA came out at 19 nM. In addition, in series [1], the CC50 at 65 h was over 100000 nM and the viability at 65 h, 100 µM came to 96.6%.
Consider `COc1cc(N(Cc2cc(C(F)(F)F)[nH]n2)C(=O)Nc2ccc(F)c(Cl)c2)ccn1` [Example 74, 3-(3-chloro-4-fluorophenyl)-1-(2-methoxypyridin-4-yl)-1-((5-(trifluoromethyl)-1H-pyrazol-3-yl)methyl)urea], for which the IC50 in the series on intracellular HBV DNA was determined as 22 nM. Further, in series [1], the CC50 at 65 h is over 100000 nM and the viability at 65 h, 100 µM is 55.6%.
Regarding `COc1cncc(N(Cc2n[nH]c3c2COCC3)C(=O)Nc2ccc(F)c(Cl)c2)c1` [Example 75, 3-(3-chloro-4-fluorophenyl)-1-(5-methoxypyridin-3-yl)-1-((1,4,6,7-tetrahydropyrano[4,3-c]pyrazol-3-yl)methyl)urea], the IC50 in the series on intracellular HBV DNA stood at 36 nM. Besides, in series [1], the CC50 at 65 h was over 100000 nM and the viability at 65 h, 100 µM came to 92.1%.
Taken in the same sequence, the figures for `COc1cncc(N(Cc2cc(C(F)F)[nH]n2)C(=O)Nc2ccc(F)c(Cl)c2)c1` [Example 77, 3-(3-chloro-4-fluorophenyl)-1-((5-(difluoromethyl)-1H-pyrazol-3-yl)methyl)-1-(5-methoxypyridin-3-yl)urea] were 36 nM, over 100000 nM and 86.7%.
`COc1ccc(N(Cc2n[nH]c(C(F)(F)F)c2C)C(=O)Nc2ccc(F)c(Cl)c2)cn1` [Example 78, 3-(3-chloro-4-fluorophenyl)-1-(6-methoxypyridin-3-yl)-1-((4-methyl-5-(trifluoromethyl)-1H-pyrazol-3-yl)methyl)urea]: the IC50 in the series with intracellular HBV DNA is 30.3 nM. Besides, in series [1], the CC50 at 65 h was over 100000 nM and the viability at 65 h, 100 µM was 94%.
The matching figures for `COc1ncc(N(Cc2cc(C(F)(F)F)[nH]n2)C(=O)Nc2ccc(F)c(Cl)c2)cn1` [Example 80, 3-(3-chloro-4-fluorophenyl)-1-(2-methoxypyrimidin-5-yl)-1-((5-(trifluoromethyl)-1H-pyrazol-3-yl)methyl)urea]: 19 nM, 88400 nM and 21.4%.
The matching figures for `COCc1c(CN(C(=O)Nc2ccc(F)c(Cl)c2)c2ccc(OC)nc2)n[nH]c1C(F)F` [Example 82, 3-(3-chloro-4-fluorophenyl)-1-((5-(difluoromethyl)-4-(methoxymethyl)-1H-pyrazol-3-yl)methyl)-1-(6-methoxypyridin-3-yl)urea]: over 1100 nM, over 100000 nM and 85.8%.
`CCOC=Cc1c(CN(C(=O)Nc2ccc(F)c(Cl)c2)c2ccc(OC)nc2)n[nH]c1C(F)(F)F` [Example 83, 3-(3-chloro-4-fluorophenyl)-1-((4-(2-ethoxyvinyl)-5-(trifluoromethyl)-1H-pyrazol-3-yl)methyl)-1-(6-methoxypyridin-3-yl)urea] returned an IC50 with intracellular HBV DNA of over 1100 nM. In addition, in series [1], the CC50 at 65 h was over 100000 nM and the viability at 65 h, 100 µM amounted to 95.1%.
Regarding `COCCc1c(CN(C(=O)Nc2ccc(F)c(Cl)c2)c2ccc(OC)nc2)n[nH]c1C(F)F` [Example 88, 3-(3-chloro-4-fluorophenyl)-1-((5-(difluoromethyl)-4-(2-methoxyethyl)-1H-pyrazol-3-yl)methyl)-1-(6-methoxypyridin-3-yl)urea], the IC50 in the series with intracellular HBV DNA was over 1100 nM. Further, in series [1], the 50% cytotoxic concentration (CC50) at 65 h was over 100000 nM and the viability at 65 h, 100 µM came to 74.5%.
The matching figures for `COc1ncc(N(Cc2cc(C(F)(F)F)[nH]n2)C(=O)Nc2cc(Cl)c(F)cn2)cn1` [Example 89, 3-(4-chloro-5-fluoropyridin-2-yl)-1-(2-methoxypyrimidin-5-yl)-1-((5-(trifluoromethyl)-1H-pyrazol-3-yl)methyl)urea]: 50 nM, over 100000 nM and 96%.
Molecule `COc1ncc(N(Cc2n[nH]c(C(F)F)c2C(C)(C)O)C(=O)Nc2ccc(F)c(Cl)c2)cn1` [Example 92, 3-(3-chloro-4-fluorophenyl)-1-((5-(difluoromethyl)-4-(2-hydroxypropan-2-yl)-1H-pyrazol-3-yl)methyl)-1-(2-methoxypyrimidin-5-yl)urea] returned an IC50 with intracellular HBV DNA of over 1100 nM. Also, in series [1], the CC50 at 65 h was over 100000 nM.
The matching figures for `C=C(C)c1c(CN(C(=O)Nc2ccc(F)c(Cl)c2)c2cnc(OC)nc2)n[nH]c1C(F)F` [Example 93, 3-(3-chloro-4-fluorophenyl)-1-((5-(difluoromethyl)-4-(prop-1-en-2-yl)-1H-pyrazol-3-yl)methyl)-1-(2-methoxypyrimidin-5-yl)urea]: 320 nM and over 100000 nM.
`COc1cc(N(Cc2cc(C(F)(F)F)[nH]n2)C(=O)Nc2ccc(F)c(Cl)c2)cnn1` [Example 94, 3-(3-chloro-4-fluorophenyl)-1-(6-methoxypyridazin-4-yl)-1-((5-(trifluoromethyl)-1H-pyrazol-3-yl)methyl)urea] displayed an IC50 in the series with intracellular HBV DNA of 260 nM. For the same molecule, in series [1], the CC50 at 65 h came out at 64400 nM and the viability at 65 h, 100 µM came to 4.8%.
Turning to `COc1ncc(N(Cc2n[nH]c(C(F)(F)F)c2CC(C)O)C(=O)Nc2ccc(F)c(Cl)c2)cn1` (stereo not shown) [Example 95, 3-(3-chloro-4-fluorophenyl)-1-((4-(2-hydroxypropyl)-5-(trifluoromethyl)-1H-pyrazol-3-yl)methyl)-1-(2-methoxypyrimidin-5-yl)urea], the IC50 in the series with intracellular HBV DNA was 830 nM. Further, in series [1], the CC50 at 65 h was found to be 62200 nM and the viability at 65 h, 100 µM turned out to be 29.9%.
The matching figures for `COc1ccc(N(Cc2cc(C(F)(F)F)[nH]n2)C(=O)Nc2ccc(F)c(Cl)c2)nn1` [Example 96, 3-(3-chloro-4-fluorophenyl)-1-(6-methoxypyridazin-3-yl)-1-((5-(trifluoromethyl)-1H-pyrazol-3-yl)methyl)urea]: over 1100 nM, over 100000 nM and 93.4%.
The matching figures for `COc1ccc(N(Cc2cc(C(F)F)[nH]n2)C(=O)Nc2ccc(F)c(Cl)c2)nn1` [Example 97, 3-(3-chloro-4-fluorophenyl)-1-((5-(difluoromethyl)-1H-pyrazol-3-yl)methyl)-1-(6-methoxypyridazin-3-yl)urea]: over 1100 nM, over 100000 nM and 86.2%.
Turning to `COc1cc(N(Cc2cc(C(F)F)[nH]n2)C(=O)Nc2ccc(F)c(Cl)c2)cnn1` [Example 99, 3-(3-chloro-4-fluorophenyl)-1-((5-(difluoromethyl)-1H-pyrazol-3-yl)methyl)-1-(6-methoxypyridazin-4-yl)urea], the IC50 in the series on intracellular HBV DNA amounted to 890 nM. In series [1], the CC50 at 65 h was over 100000 nM and the viability at 65 h, 100 µM turned out to be 83.4%.
As for `COc1ncc(N(Cc2n[nH]c(C(F)(F)F)c2C(C)(C)O)C(=O)Nc2ccc(F)c(Cl)c2)cn1` [Example 102, 3-(3-chloro-4-fluorophenyl)-1-((4-(2-hydroxypropan-2-yl)-5-(trifluoromethyl)-1H-pyrazol-3-yl)methyl)-1-(2-methoxypyrimidin-5-yl)urea], the IC50 in the series on intracellular HBV DNA was over 1100 nM. Besides, in series [1], the 50% cytotoxic concentration (CC50) at 65 h is over 66000 nM and the viability at 65 h, 100 µM stood at 3.8%.
